The target of one test is SMARCA2 (Homo sapiens, UniProt P51531). The test can be described thus: HiBiT assay for protein degradation, Hela SMARCA2-HiBiT cells (A series).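 On SMARC A2 Hela HiBit Dmax (%): 24 h compound treatment.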 The test is classed as cell-based. Set-up: Hela cells were genetically modified via CRISPR/Cas9 to fuse HiBiT to the carboxy terminus of SMARCA2; host or cells: HeLa (CRISPR/Cas9 HiBiT knock-in). As to conditions: Hela SMARCA2-HiBiT cells, 24 hours treatment; for DC50: read-out: SMARC A2 Hela HiBit DC50; for Dmax: read-out: SMARC A2 Hela HiBit Dmax (%). In outline:
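HeLa cells engineered by CRISPR/Cas9 to carry a HiBiT tag fused to the C-terminus of SMARCA2 (Promega CS302365) were grown in DMEM supplemented with FBS and penicillin-streptomycin. After treatment, remaining SMARCA2 protein was quantified with the Nano-Glo® HiBiT Lytic Detection Assay (Promega N3050), and curves were fitted in GraphPad Prism.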

A further test addresses SMARCA4 (Homo sapiens, UniProt P51532). The test can be described thus: HiBiT assay for protein degradation, Hela SMARCA4-HiBiT cells (A series). Set-up: fuse HiBiT to the carboxy terminus of SMARCA2 (Promega CS302365) or SMARCA4 (Promega CS3023225); host or cells: HeLa (CRISPR/Cas9 HiBiT knock-in). As to conditions: Hela SMARCA4-HiBiT cells, 24 hours treatment; for DC50: read-out: SMARC A4 Hela HiBit DC50; for Dmax: read-out: SMARC A4 Hela HiBit Dmax. The test is classed as cell-based. The method in brief:
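HeLa cells engineered by CRISPR/Cas9 to carry a HiBiT tag fused to the C-terminus of SMARCA4 (Promega CS3023225) were grown in DMEM supplemented with FBS and penicillin-streptomycin. After compound exposure, remaining SMARCA4 protein was quantified using the Nano-Glo® HiBiT Lytic Detection Assay (Promega N3050), and curves were fitted in GraphPad Prism.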

SMARCA4, sequence (P51532 whole entry, the tested form may be a part): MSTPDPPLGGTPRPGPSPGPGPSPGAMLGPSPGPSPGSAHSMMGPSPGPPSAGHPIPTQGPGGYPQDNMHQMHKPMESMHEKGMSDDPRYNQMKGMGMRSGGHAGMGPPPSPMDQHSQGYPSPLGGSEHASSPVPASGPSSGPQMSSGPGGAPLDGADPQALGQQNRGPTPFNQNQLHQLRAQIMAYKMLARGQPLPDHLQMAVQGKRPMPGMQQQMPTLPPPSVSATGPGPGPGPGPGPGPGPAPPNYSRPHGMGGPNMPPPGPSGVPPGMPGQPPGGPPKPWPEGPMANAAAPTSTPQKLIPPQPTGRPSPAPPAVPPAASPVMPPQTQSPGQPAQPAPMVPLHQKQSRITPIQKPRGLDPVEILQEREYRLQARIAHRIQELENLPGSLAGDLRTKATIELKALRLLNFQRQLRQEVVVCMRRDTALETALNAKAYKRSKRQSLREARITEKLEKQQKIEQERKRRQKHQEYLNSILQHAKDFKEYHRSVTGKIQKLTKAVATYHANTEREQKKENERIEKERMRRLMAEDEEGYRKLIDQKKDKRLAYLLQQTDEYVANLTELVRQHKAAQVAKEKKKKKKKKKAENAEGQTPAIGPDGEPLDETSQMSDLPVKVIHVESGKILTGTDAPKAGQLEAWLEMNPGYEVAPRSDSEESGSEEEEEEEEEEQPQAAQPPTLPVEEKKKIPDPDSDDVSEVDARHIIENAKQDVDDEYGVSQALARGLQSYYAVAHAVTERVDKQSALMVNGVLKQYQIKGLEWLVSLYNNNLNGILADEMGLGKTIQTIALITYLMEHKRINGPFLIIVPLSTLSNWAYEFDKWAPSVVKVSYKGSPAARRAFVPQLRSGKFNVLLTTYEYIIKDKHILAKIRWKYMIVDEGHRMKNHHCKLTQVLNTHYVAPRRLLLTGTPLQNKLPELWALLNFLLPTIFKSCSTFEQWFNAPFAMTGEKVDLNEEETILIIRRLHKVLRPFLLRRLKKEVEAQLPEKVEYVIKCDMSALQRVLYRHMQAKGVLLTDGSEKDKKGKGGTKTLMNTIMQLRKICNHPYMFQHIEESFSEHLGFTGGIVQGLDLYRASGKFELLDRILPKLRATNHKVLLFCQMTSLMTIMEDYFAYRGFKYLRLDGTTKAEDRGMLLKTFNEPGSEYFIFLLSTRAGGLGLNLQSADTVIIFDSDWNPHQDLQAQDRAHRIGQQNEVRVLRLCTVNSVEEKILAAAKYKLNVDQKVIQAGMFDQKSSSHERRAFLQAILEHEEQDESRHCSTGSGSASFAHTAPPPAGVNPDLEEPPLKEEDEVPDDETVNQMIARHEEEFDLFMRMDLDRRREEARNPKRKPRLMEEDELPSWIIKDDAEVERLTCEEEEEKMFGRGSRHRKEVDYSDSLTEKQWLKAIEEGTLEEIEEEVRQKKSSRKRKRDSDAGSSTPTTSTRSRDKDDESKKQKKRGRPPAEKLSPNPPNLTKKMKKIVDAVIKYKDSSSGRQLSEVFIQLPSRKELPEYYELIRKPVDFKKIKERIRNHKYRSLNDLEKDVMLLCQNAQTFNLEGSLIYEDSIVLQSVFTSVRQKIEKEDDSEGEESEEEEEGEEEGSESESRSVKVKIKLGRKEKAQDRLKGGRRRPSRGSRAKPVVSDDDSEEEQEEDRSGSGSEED
SMARCA2, sequence (P51531 whole entry, the tested form may be a part): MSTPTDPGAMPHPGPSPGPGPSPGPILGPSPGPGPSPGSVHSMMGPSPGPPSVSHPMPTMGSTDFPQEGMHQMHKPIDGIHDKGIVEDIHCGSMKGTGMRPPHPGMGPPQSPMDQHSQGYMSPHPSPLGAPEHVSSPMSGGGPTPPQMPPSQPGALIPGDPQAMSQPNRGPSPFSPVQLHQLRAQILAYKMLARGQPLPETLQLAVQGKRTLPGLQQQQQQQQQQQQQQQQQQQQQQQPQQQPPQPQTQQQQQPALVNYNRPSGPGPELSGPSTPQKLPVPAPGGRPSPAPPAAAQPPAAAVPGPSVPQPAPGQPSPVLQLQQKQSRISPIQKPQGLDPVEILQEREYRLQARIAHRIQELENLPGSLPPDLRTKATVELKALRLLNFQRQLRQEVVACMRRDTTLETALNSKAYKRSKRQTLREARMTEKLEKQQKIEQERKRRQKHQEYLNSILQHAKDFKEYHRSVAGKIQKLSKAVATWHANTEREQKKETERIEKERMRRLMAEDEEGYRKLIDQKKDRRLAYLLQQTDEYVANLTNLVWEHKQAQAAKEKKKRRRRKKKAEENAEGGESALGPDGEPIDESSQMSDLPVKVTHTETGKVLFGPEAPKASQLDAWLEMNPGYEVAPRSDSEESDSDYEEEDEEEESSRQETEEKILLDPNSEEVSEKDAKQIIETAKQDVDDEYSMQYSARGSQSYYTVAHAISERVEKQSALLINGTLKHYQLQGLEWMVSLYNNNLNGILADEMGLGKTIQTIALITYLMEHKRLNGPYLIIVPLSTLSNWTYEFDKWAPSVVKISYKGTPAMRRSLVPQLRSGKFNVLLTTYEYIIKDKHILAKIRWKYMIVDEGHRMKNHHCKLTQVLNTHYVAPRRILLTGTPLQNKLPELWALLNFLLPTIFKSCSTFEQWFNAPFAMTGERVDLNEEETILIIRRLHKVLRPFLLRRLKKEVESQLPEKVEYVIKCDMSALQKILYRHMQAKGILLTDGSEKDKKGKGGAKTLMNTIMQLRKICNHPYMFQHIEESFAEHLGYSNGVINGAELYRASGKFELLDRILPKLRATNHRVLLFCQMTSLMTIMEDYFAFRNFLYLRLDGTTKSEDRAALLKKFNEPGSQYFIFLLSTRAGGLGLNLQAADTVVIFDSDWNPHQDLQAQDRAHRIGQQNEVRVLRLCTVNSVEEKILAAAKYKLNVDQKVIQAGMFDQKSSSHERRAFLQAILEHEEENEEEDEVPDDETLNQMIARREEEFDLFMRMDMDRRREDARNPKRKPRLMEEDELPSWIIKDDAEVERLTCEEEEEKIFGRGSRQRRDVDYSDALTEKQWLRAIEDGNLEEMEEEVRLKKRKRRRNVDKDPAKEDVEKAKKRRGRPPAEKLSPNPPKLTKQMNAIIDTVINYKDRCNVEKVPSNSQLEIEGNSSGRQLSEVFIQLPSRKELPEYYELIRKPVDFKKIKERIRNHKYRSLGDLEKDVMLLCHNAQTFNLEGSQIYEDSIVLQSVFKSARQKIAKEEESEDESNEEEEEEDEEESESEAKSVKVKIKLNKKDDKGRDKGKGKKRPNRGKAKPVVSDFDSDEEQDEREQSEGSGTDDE

In the case of `Cc1ncsc1-c1ccc([C@H](Cn2cc(CN3CCC(c4ccc5c(c4)-n4c(nc(=O)c6c(Br)cccc64)C54CCCCC4)CC3)nn2)NC(=O)[C@@H]2C[C@@H](O)CN2C(=O)[C@@H](n2cc(C3CC3)nn2)C(C)(C)C)cc1` [Compound A114, (2S,4R)—N—((R)-2-(4-((4-(4′-bromo-5′-oxo-5′H-spiro[cyclohexane-1,7′-indolo[1,2-a]quinazolin]-10′-yl)piperidin-1-yl)methyl)-1H-1,2,3-triazol-1-yl)-1-(4-(4-methylthiazol-5-yl)phenyl)ethyl)-1-((S)-2-(4-cyclopropyl-1H-1,2,3-triazol-1-yl)-3,3-dimethylbutanoyl)-4-hydroxypyrrolidine-2-carboxamide], at SMARCA2, the DC50 is 10 to 100 nM and the greatest degradation seen (Dmax) was in the range of 70 to 90%. Also, on SMARCA4, the half-maximal degradation concentration (DC50) was in the range of 100 to 1000 nM and the Dmax fell in the range of 70 to 90%.

Regarding `Cc1ncsc1-c1ccc([C@H](Cn2cc(CN3CCC(c4ccc5c(c4)C4(CCCCC4)c4nc(=O)c6c(Br)cccc6n4-5)CC3)nn2)NC(=O)[C@@H]2C[C@@H](O)CN2C(=O)[C@@H](n2cc(C3CC3)nn2)C(C)(C)C)cc1` [Compound A115, (2S,4R)—N—((R)-2-(4-((4-(4′-bromo-5′-oxo-5′H-spiro[cyclohexane-1,7′-indolo[1,2-a]quinazolin]-9′-yl)piperidin-1-yl)methyl)-1H-1,2,3-triazol-1-yl)-1-(4-(4-methylthiazol-5-yl)phenyl)ethyl)-1-((S)-2-(4-cyclopropyl-1H-1,2,3-triazol-1-yl)-3,3-dimethylbutanoyl)-4-hydroxypyrrolidine-2-carboxamide], at SMARCA2, the half-maximal degradation concentration (DC50) lay in the range of 10 to 100 nM and the maximal degradation (Dmax) lay within 70 to 90%. For the same molecule, at SMARCA4, the 50% degradation concentration (DC50) was 10 to 100 nM and the Dmax was over 90%.

`Cc1ncsc1-c1ccc([C@H](CNC(=O)[C@H]2CC[C@H](CN3CCC(c4ccc5c(c4)-n4c(nc(=O)c6c(Br)cccc64)C54CCCCC4)CC3)CC2)NC(=O)[C@@H]2C[C@@H](O)CN2C(=O)[C@@H](n2cc(C3CC3)nn2)C(C)(C)C)cc1` [Compound A116, (2S,4R)—N—((R)-2-((1r,4R)-4-((4-(4′-bromo-5′-oxo-5′H-spiro[cyclohexane-1,7′-indolo[1,2-a]quinazolin]-10′-yl)piperidin-1-yl)methyl)cyclohexane-1-carboxamido)-1-(4-(4-methylthiazol-5-yl)phenyl)ethyl)-1-((S)-2-(4-cyclopropyl-1H-1,2,3-triazol-1-yl)-3,3-dimethylbutanoyl)-4-hydroxypyrrolidine-2-carboxamide]: on SMARCA2, the half-maximal degradation concentration (DC50) was over 1000 nM and the maximal degradation (Dmax) is under 50%. Further, at SMARCA4, the DC50 was over 1000 nM and the maximal degradation (Dmax) is under 50%.

Consider `Cc1ncsc1-c1ccc([C@H](CNC(=O)[C@H]2CC[C@H](CN3CCC(c4ccc5c(c4)C4(CCCCC4)c4nc(=O)c6c(Br)cccc6n4-5)CC3)CC2)NC(=O)[C@@H]2C[C@@H](O)CN2C(=O)[C@@H](n2cc(C3CC3)nn2)C(C)(C)C)cc1` [Compound A117, (2S,4R)—N—((R)-2-((1r,4R)-4-((4-(4′-bromo-5′-oxo-5′H-spiro[cyclohexane-1,7′-indolo[1,2-a]quinazolin]-9′-yl)piperidin-1-yl)methyl)cyclohexane-1-carboxamido)-1-(4-(4-methylthiazol-5-yl)phenyl)ethyl)-1-((S)-2-(4-cyclopropyl-1H-1,2,3-triazol-1-yl)-3,3-dimethylbutanoyl)-4-hydroxypyrrolidine-2-carboxamide], for which, on SMARCA2, the DC50 is over 1000 nM and the Dmax is under 50%. Moreover, at SMARCA4, the half-maximal degradation concentration (DC50) was over 1000 nM and the maximal degradation (Dmax) is under 50%.

As for `Cc1ncsc1-c1ccc([C@H](C)NC(=O)[C@@H]2C[C@@H](O)CN2C(=O)[C@H](C2CCCCC2)n2cc([C@H]3CC[C@H](CN4CCC(c5ccc6c(c5)-n5c(nc(=O)c7c(Cl)cccc75)C65CCCCC5)CC4)CC3)nn2)cc1` [Compound A118, (2S,4R)-1-((S)-2-(4-((1r,4S)-4-((4-(4′-chloro-5′-oxo-5′H-spiro[cyclohexane-1,7′-indolo[1,2-a]quinazolin]-10′-yl)piperidin-1-yl)methyl)cyclohexyl)-1H-1,2,3-triazol-1-yl)-2-cyclohexylacetyl)-4-hydroxy-N—((S)-1-(4-(4-methylthiazol-5-yl)phenyl)ethyl)pyrrolidine-2-carboxamide], on SMARCA2, the DC50 was under 10 nM and the Dmax was over 90%. On SMARCA4, the DC50 lay within 100 to 1000 nM and the Dmax was in the range of 50 to 69%.

Regarding `Cc1ncsc1-c1ccc([C@H](C)NC(=O)[C@@H]2C[C@@H](O)CN2C(=O)[C@H](C2CCCCC2)n2cc([C@H]3CC[C@H](CN4CCC(c5ccc6c(c5)-n5c(nc(=O)c7c(Br)cccc75)C65CCCCC5)CC4)CC3)nn2)cc1` [Compound A119, (2S,4R)-1-((S)-2-(4-((1r,4S)-4-((4-(4′-bromo-5′-oxo-5′H-spiro[cyclohexane-1,7′-indolo[1,2-a]quinazolin]-10′-yl)piperidin-1-yl)methyl)cyclohexyl)-1H-1,2,3-triazol-1-yl)-2-cyclohexylacetyl)-4-hydroxy-N—((S)-1-(4-(4-methylthiazol-5-yl)phenyl)ethyl)pyrrolidine-2-carboxamide], at SMARCA2, the DC50 is under 10 nM and the maximal degradation (Dmax) was over 90%. Moreover, on SMARCA4, the DC50 fell in the range of 10 to 100 nM and the maximal degradation (Dmax) fell in the range of 70 to 90%.

Regarding `Cc1ncsc1-c1ccc([C@H](C)NC(=O)[C@@H]2C[C@@H](O)CN2C(=O)[C@H](C2CCOCC2)n2cc([C@H]3CC[C@H](CN4CCC(c5ccc6c(c5)-n5c(nc(=O)c7c(Cl)cccc75)C65CCCCC5)CC4)CC3)nn2)cc1` [Compound A120, (2S,4R)-1-((S)-2-(4-((1r,4S)-4-((4-(4′-chloro-5′-oxo-5′H-spiro[cyclohexane-1,7′-indolo[1,2-a]quinazolin]-10′-yl)piperidin-1-yl)methyl)cyclohexyl)-1H-1,2,3-triazol-1-yl)-2-(tetrahydro-2H-pyran-4-yl)acetyl)-4-hydroxy-N—((S)-1-(4-(4-methylthiazol-5-yl)phenyl)ethyl)pyrrolidine-2-carboxamide], on SMARCA2, the 50% degradation concentration (DC50) is under 10 nM and the Dmax was over 90%. In addition, at SMARCA4, the “SMARC A4 Hela HiBit DC50(nM)” value is reported as “No fit” and the Dmax was in the range of 50 to 69%.

Turning to `Cc1ncsc1-c1ccc([C@H](C)NC(=O)[C@@H]2C[C@@H](O)CN2C(=O)[C@H](C2CCOCC2)n2cc([C@H]3CC[C@H](CN4CCC(c5ccc6c(c5)-n5c(nc(=O)c7c(Br)cccc75)C65CCCCC5)CC4)CC3)nn2)cc1` [Compound A121, (2S,4R)-1-((S)-2-(4-((1r,4S)-4-((4-(4′-bromo-5′-oxo-5′H-spiro[cyclohexane-1,7′-indolo[1,2-a]quinazolin]-10′-yl)piperidin-1-yl)methyl)cyclohexyl)-1H-1,2,3-triazol-1-yl)-2-(tetrahydro-2H-pyran-4-yl)acetyl)-4-hydroxy-N—((S)-1-(4-(4-methylthiazol-5-yl)phenyl)ethyl)pyrrolidine-2-carboxamide], at SMARCA2, the half-maximal degradation concentration (DC50) was under 10 nM and the greatest degradation seen (Dmax) was over 90%. On SMARCA4, the “SMARC A4 Hela HiBit DC50(nM)” value was “No fit” and the Dmax lay within 70 to 90%.

The record behind these values is patent US20260092071A1, “COMPOUNDS AND COMPOSITIONS AS SMARCA2/4 DEGRADERS AND USES THEREOF” (REGENTS OF THE UNIVERSITY OF MICHIGAN, priority 2022, published 2026).
